Here are results for one molecule from patent publication US10473645B2, “Methods for identifying a receptor for a ligand and uses thereof” (UNIVERSITE DE GENEVE, priority 2014, dated 2019).

Assay [1] concerns Olfr160. As to the kind of experiment: OR transcript level by RT-qPCR after in vivo odorant exposure. Also on record: species or system mouse; key to olfr160 candidate OR (RNAseq) confirmed by qPCR: The transcript downregulation of 21 out of the 26 olfactory receptor candidates obtained by RNAseq was confirmed by qPCR; false RNAseq positive candidates, namely OR candidates for which in fact mRNA was not downregulated following acetophenone exposure. The conditions noted are these: for Olfr160 mRNA level relative to unexposed controls: 5% odorant, 5 hours, in vivo, RT-qPCR. As to the method: (§1) In vivo exposure to odorant: Starting 48 h before experiments, mice were habituated to pure DMSO on a cotton ball. 200 μl were pipetted directly onto the cotton and placed in the cage, replacing any cotton that was already in the cage for nest-making purposes.
On the day of the experiment, mice receiving odorants were transferred to a different room, where they were exposed to a cotton ball on which 200 μl of odorant diluted in pure DMSO were deposited. Exposures started in the morning between 8 and 10 am (that is two hours after lights were on) and mice were killed and dissected between 1 and 3 pm. […] If a number of different odorants were tested in the same experiment, a different overpressurized room would always be used for each odorant to avoid odor cross-contamination.
(§2) After odorant exposure, mice were killed by cervical dislocation and immediately decapitated. The main olfactory epithelia (MOE), were harvested in their entirety and transferred to a tube containing 600 μl of lysis buffer and β-mercaptoethanol (RNAeasy kit, Qiagen, following the manufacturer protocol) and a 0.5 cm diameter steel ball, and then put on ice. Samples were then homogenized using a FastPrep®-24 instrument (MP Biomedicals) at 6 m/s for 30 s and left on ice. RNA extraction was performed on all samples in parallel using the Qiagen RNeasy Mini® kit following the manufacturer's instructions. Two DNase treatments were performed on all samples: first using the Qiagen RNase-Free DNase Set® and then using the Life Technologies Ambion DNase I® kit. RNA samples were then aliquoted and stored at −80° C.
(§3) RNA concentrations were determined using an Amersham Ultrospec® 3100 Pro spectrophotometer, and RNA quality was evaluated with an Agilent Technologies 2100 Bioanalyzer®. […]
(§4) qPCR Ct values were analyzed using an in-house developed Microsoft Excel® macro file. […] Ct values were converted to quantities relative to the maximum for each given gene. Selected reference genes were then analyzed for variance using the geNorm algorithm. […]
For orientation: Real-time PCR tracks product formation cycle by cycle.

For assay [2], the target named is T1, Olfr730 (Mus musculus, UniProt A0A0U1RNX7).
T1 construct: from tissue; host or cells: olfactory epithelium of adult C57BL/6 mice
T1 sequence (A0A0U1RNX7 1-317): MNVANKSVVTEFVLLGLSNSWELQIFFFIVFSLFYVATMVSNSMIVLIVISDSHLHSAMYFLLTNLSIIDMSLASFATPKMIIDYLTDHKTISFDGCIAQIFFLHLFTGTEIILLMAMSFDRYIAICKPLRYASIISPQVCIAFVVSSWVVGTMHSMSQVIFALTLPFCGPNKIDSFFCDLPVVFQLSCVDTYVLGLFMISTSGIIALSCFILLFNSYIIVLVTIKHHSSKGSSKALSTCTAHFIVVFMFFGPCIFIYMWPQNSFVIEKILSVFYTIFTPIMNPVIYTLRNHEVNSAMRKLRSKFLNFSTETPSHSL
The description is as above. The conditions noted are these: 5% odorant, 5 hours. As to the method:
as §1
On the day of the experiment, mice receiving odorants were transferred to a different room, where they were exposed to a cotton ball on which 200 μl of odorant diluted in pure DMSO were deposited. Exposures started in the morning between 8 and 10 am (that is two hours after lights were on) and mice were killed and dissected between 1 and 3 pm. […]
as §3, §4
Adult C57BL/6 mice were exposed to 5% acetophenone for 5 hours, and the level of transcripts of odorant receptors' genes were measured by RT-qPCR on extracts of olfactory epithelia from these mice, as described in the materials and methods section.

Assay [3] deals with OSNs expressing olfr1350. In words: pS6 immunolabeling with OR in situ hybridization after odorant exposure. Further details: key: y: neuronal activation (i.e. pS6 signal in a fraction of neuron exceeding 15% relative to controls); no pS6 signals. The conditions noted are these: 5% acetophenone, 60 minutes. The assay is classed as in vivo, mouse. The procedure:
(§5) In order to independently validate the identity of an acetophenone receptor obtained with the RNAseq approach, the potential colocalization following acetophenone exposure of a neuronal activity marker (the phosphorylated ribosomal protein S6 (pS6) (Knight et al., 2012, Cell, 151, 1126-1137) and specific olfactory receptors were evaluated. To this aim, in-situ hybridizations were performed on sections of olfactory tissue with probes targeting receptor mRNAs followed by immunolabeling of pS6. The probes used were directed against the transcripts of most of the ORs determined as responsive including Olfr983 transcripts (encoding a known acetophenone receptor), Olfr171 transcripts (encoding a known ethyl isobutyrate receptor), and Olfr145 transcripts, encoding a newly identified receptor by RNAseq. Before analysis, mice were exposed to either 5% acetophenone, 5% ethyl isobutyrate, or a negative control condition for 60 minutes. […] 66% (Olfr983) and 70% (Olfr145) of the neurons were positive for pS6 after acetophenone exposure, while only 11% of the neurons expressing Olfr171 were positive for pS6 after exposure to this compound.

Assay [4] concerns OSNs expressing olfr490. The assay is described as above. It is filed as in vivo, mouse. Also on record: key: y: neuronal activation (i.e. pS6 signal in a fraction of neuron exceeding 15% relative to controls); no pS6 signals. The conditions noted are these: 5% acetophenone, 60 minutes. The procedure: as §5
The target of assay [5] is T2, Olfr556 (Mus musculus, UniProt B2RRG2).
T2 sequence (B2RRG2 1-324): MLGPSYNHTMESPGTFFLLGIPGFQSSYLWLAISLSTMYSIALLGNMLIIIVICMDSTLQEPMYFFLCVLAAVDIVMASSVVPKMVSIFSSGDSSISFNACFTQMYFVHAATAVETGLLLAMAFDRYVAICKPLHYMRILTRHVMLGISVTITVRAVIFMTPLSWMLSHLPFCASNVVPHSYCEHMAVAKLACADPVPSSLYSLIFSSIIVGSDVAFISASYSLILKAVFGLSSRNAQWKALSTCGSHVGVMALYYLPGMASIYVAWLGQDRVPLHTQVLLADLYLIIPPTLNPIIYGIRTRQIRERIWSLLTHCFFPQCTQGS
As to the kind of experiment: OR transcript level by RT-qPCR after in vivo odorant exposure. Further details: from tissue; host or cells: main olfactory epithelium of exposed mice; key to olfr556 candidate OR (RNAseq) confirmed by qPCR: The transcript downregulation of 21 out of the 26 olfactory receptor candidates obtained by RNAseq was confirmed by qPCR; false RNAseq positive candidates, namely OR candidates for which in fact mRNA was not downregulated following acetophenone exposure. The conditions noted are these: for Olfr556 mRNA level relative to unexposed controls: 5% odorant, 5 hours, in vivo, RT-qPCR. The procedure: as §1
On the day of the experiment, mice receiving odorants were transferred to a different room, where they were exposed to a cotton ball on which 200 μl of odorant diluted in pure DMSO were deposited. […] […] If a number of different odorants were tested in the same experiment, a different overpressurized room would always be used for each odorant to avoid odor cross-contamination.
as §2
RNA concentrations were determined using an Amersham Ultrospec® 3100 Pro spectrophotometer, and RNA quality was evaluated with an Agilent Technologies 2100 Bioanalyzer®. Each reverse transcription was performed with 0.5 μg RNA using the Takara Primescript® kit, in a final volume of 10 μl. Primers for reverse transcription were equal mixtures of poly-T nucleotides and random hexamers. Negative controls (omitting the reverse transcriptase enzyme) were performed for each sample. 1/14th of the cDNA preparation was used for each triplicated qPCR reaction.
qPCR Ct values were analyzed using an in-house developed Microsoft Excel® macro file. Triplicate values were compared and outliers (values with a difference higher than 0.5 Ct to their nearest neighbor) were discarded. The number of conditions with an outlying value was always less than 10% of the total number of conditions. Ct values were converted to quantities relative to the maximum for each given gene. Selected reference genes were then analyzed for variance using the geNorm algorithm. All values were normalized with the olfactory tissue-specific genes Omp and Adcy3. β-Actin was used as a non-tissue-specific reference gene to control for differences in dissection between samples. […]

For `CC(=O)c1ccccc1` [acetophenone], the “olfr160 candidate OR (RNAseq) confirmed by qPCR” value in assay [1] (5% acetophenone exposure) is “y”. Further, the “Olfr160 mRNA level relative to unexposed controls” value in assay [1] is given as “decrease”; in assay [1] (listed as Acetophenone), “downregulates”. Further, the “Olfr730 mRNA concentration increase, fold change” value in assay [2] worked out at 1.4 fold. Further, the “olfr1350 ps6 positive” value in assay [3] is on record as “n”. The “olfr490 ps6 positive” value in assay [4] is listed as “n”. In addition, in assay [5] (5% acetophenone exposure), the “olfr556 candidate OR (RNAseq) confirmed by qPCR” value is reported as “y”. Moreover, the “Olfr556 mRNA level relative to unexposed controls” value is “decrease” in assay [5] and “downregulates” in assay [5] (listed as Acetophenone).
